Consider 3 compounds from ChEMBL document CHEMBL1151182, “Phytochemical and larvicidal studies on Stemona curtisii: structure of a new pyrido[1,2-a]azepine Stemona alkaloid” (2004).

For this assay, the system named is Anopheles minimus. As to the kind of experiment: Larvicidal activity in Anopheles minimus HO by WHO method. The assay is classed as functional.

In general, LC50 refers to the concentration lethal to half of the exposed cells or organisms. Low readings indicate greater toxicity, high ones lower toxicity.

Converted amounts (≈) assume the structure as drawn.

For `COC1=C(C)C(=O)O/C1=C1\O[C@]23CCCN4[C@H]([C@@H]5C[C@H](C)C(=O)O5)[C@H](C[C@H]4[C@H]2[C@@H]1C)O3` [OXYPROTOSTEMONINE], the LC50 was 4 µg/mL (≈ 9.27 µM). `CC[C@H](O)[C@@H]1CC[C@@H]2O[C@@]34CCCN1[C@@H]2[C@H]3[C@H](C)/C(=C1/OC(=O)C(C)=C1OC)O4` [STEMOCURTISINOL] had an LC50 of 39 µg/mL (≈ 96.2 µM). Take `COC1=C(C)C(=O)O/C1=C1\O[C@@]23CCCN4CCC[C@H](O2)[C@H]4[C@H]3[C@@H]1C` [STEMOCURTISINE]: the 50% lethal concentration (LC50) was 18 µg/mL (≈ 51.8 µM).
